# Reference: PubChem BioAssay (NCI)
#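 Cultured in 96-well plates, cells were exposed to test compound for 48 hours across five concentrations. GI50 is the concentration that inhibits growth by half. TGI: total growth inhibition.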
# Columns and labels:
# Assay in all cases: NCI tumour cell line growth inhibition, 48 h
# NCI/ADR-RES ovarian = system: NCI/ADR-RES ovarian
# MDA-MB-231 breast = system: MDA-MB-231 breast
# HCT-15 colon = system: HCT-15 colon
# SK-MEL-5 melanoma = system: SK-MEL-5 melanoma
# HS 578T breast = system: HS 578T breast
# MOLT-4 leukemia = system: MOLT-4 leukemia
# A549 NSCLC = system: A549 NSCLC
# BT-549 breast = system: BT-549 breast
# UO-31 renal = system: UO-31 renal
# ACHN renal = system: ACHN renal
# U251 CNS = system: U251 CNS
# HCC-2998 colon = system: HCC-2998 colon
# SF-539 CNS = system: SF-539 CNS
# NCI-H23 lung = system: NCI-H23 lung
# 786-0 renal = system: 786-0 renal
# SR leukemia = system: SR leukemia
# TK-10 renal = system: TK-10 renal
# LOX IMVI melanoma = system: LOX IMVI melanoma
# DU-145 prostate = system: DU-145 prostate
# HCT-116 colon = system: HCT-116 colon
# UACC-257 melanoma = system: UACC-257 melanoma
# NCI-H226 lung = system: NCI-H226 lung
# SNB-75 CNS = system: SNB-75 CNS
# OVCAR-5 ovarian = system: OVCAR-5 ovarian
# SF-268 CNS = system: SF-268 CNS
# RXF 393 renal = system: RXF 393 renal
# EKVX NSCLC = system: EKVX NSCLC
# SK-MEL-28 melanoma = system: SK-MEL-28 melanoma
# HOP-92 NSCLC = system: HOP-92 NSCLC
# IGROV1 ovarian = system: IGROV1 ovarian
# OVCAR-8 ovarian = system: OVCAR-8 ovarian
# T-47D breast = system: T-47D breast
# UACC-62 melanoma = system: UACC-62 melanoma
# RPMI-8226 leukemia = system: RPMI-8226 leukemia
# KM12 colon = system: KM12 colon
# SN12C renal = system: SN12C renal
# MDA-MB-435 = system: MDA-MB-435
# NCI-H522 lung = system: NCI-H522 lung
# HOP-62 NSCLC = system: HOP-62 NSCLC
# MALME-3M melanoma = system: MALME-3M melanoma
# SK-MEL-2 melanoma = system: SK-MEL-2 melanoma
# M14 melanoma = system: M14 melanoma
# SNB-19 CNS = system: SNB-19 CNS
# OVCAR-4 ovarian = system: OVCAR-4 ovarian
# NCI-H460 lung = system: NCI-H460 lung
# SW-620 colon = system: SW-620 colon
# SF-295 CNS = system: SF-295 CNS
# HL-60(TB) leukemia = system: HL-60(TB) leukemia
# MCF7 breast = system: MCF7 breast
# A498 renal = system: A498 renal
# CCRF-CEM leukemia = system: CCRF-CEM leukemia
# HT29 colon = system: HT29 colon
# PC-3 prostate = system: PC-3 prostate
# CAKI-1 renal = system: CAKI-1 renal
# SK-OV-3 ovarian = system: SK-OV-3 ovarian
# COLO 205 colon = system: COLO 205 colon
# K-562 leukemia = system: K-562 leukemia
compound,measurement,setting,value
Oc1cccc2ccc(-c3nnc(SCc4ccc(O)c5ncccc45)n3-c3ccccc3)nc12,GI50,NCI/ADR-RES ovarian,356 nM
same,TGI,NCI/ADR-RES ovarian,6330 nM
same,GI50,MDA-MB-231 breast,996 nM
same,TGI,MDA-MB-231 breast,16200 nM
same,GI50,HCT-15 colon,323 nM
same,TGI,HCT-15 colon,> 37100 nM
same,GI50,SK-MEL-5 melanoma,579 nM
same,GI50,HS 578T breast,398 nM
same,TGI,HS 578T breast,6240 nM
same,GI50,MOLT-4 leukemia,459 nM
same,TGI,MOLT-4 leukemia,> 47400 nM
same,GI50,A549 NSCLC,651 nM
same,TGI,A549 NSCLC,> 35800 nM
same,GI50,BT-549 breast,419 nM
same,TGI,BT-549 breast,> 21700 nM
same,GI50,UO-31 renal,297 nM
same,TGI,UO-31 renal,1570 nM
same,GI50,ACHN renal,419 nM
same,TGI,ACHN renal,2440 nM
same,GI50,U251 CNS,293 nM
same,TGI,U251 CNS,7600 nM
same,GI50,HCC-2998 colon,612 nM
same,TGI,HCC-2998 colon,> 100000 nM
same,GI50,SF-539 CNS,430 nM
same,TGI,SF-539 CNS,3410 nM
same,GI50,NCI-H23 lung,533 nM
same,TGI,NCI-H23 lung,> 33500 nM
same,GI50,786-0 renal,759 nM
same,TGI,786-0 renal,11700 nM
same,GI50,SR leukemia,385 nM
same,TGI,SR leukemia,> 50800 nM
same,GI50,TK-10 renal,428 nM
same,TGI,TK-10 renal,7280 nM
same,GI50,LOX IMVI melanoma,556 nM
same,TGI,LOX IMVI melanoma,7940 nM
same,GI50,DU-145 prostate,580 nM
same,TGI,DU-145 prostate,> 100000 nM
same,GI50,HCT-116 colon,324 nM
same,TGI,HCT-116 colon,9380 nM
same,GI50,UACC-257 melanoma,708 nM
same,TGI,UACC-257 melanoma,6620 nM
same,GI50,NCI-H226 lung,3040 nM
same,TGI,NCI-H226 lung,> 50800 nM
same,GI50,SNB-75 CNS,279 nM
same,TGI,SNB-75 CNS,4420 nM
same,GI50,OVCAR-5 ovarian,3430 nM
same,TGI,OVCAR-5 ovarian,> 81100 nM
same,GI50,SF-268 CNS,471 nM
same,TGI,SF-268 CNS,> 73900 nM
same,GI50,RXF 393 renal,744 nM
same,TGI,RXF 393 renal,19100 nM
same,GI50,EKVX NSCLC,788 nM
same,TGI,EKVX NSCLC,> 26400 nM
same,GI50,SK-MEL-28 melanoma,533 nM
same,TGI,SK-MEL-28 melanoma,> 100000 nM
same,GI50,HOP-92 NSCLC,257 nM
same,TGI,HOP-92 NSCLC,940 nM
same,GI50,IGROV1 ovarian,735 nM
same,TGI,IGROV1 ovarian,11500 nM
same,GI50,OVCAR-8 ovarian,408 nM
same,TGI,OVCAR-8 ovarian,11900 nM
same,GI50,T-47D breast,380 nM
same,TGI,T-47D breast,2570 nM
same,GI50,UACC-62 melanoma,1060 nM
same,TGI,UACC-62 melanoma,5080 nM
same,GI50,RPMI-8226 leukemia,437 nM
same,TGI,RPMI-8226 leukemia,> 100000 nM
same,GI50,KM12 colon,507 nM
same,TGI,KM12 colon,> 100000 nM
same,GI50,SN12C renal,448 nM
same,TGI,SN12C renal,18300 nM
same,GI50,MDA-MB-435,441 nM
same,TGI,MDA-MB-435,> 73800 nM
same,GI50,NCI-H522 lung,456 nM
same,TGI,NCI-H522 lung,11900 nM
same,GI50,HOP-62 NSCLC,519 nM
same,TGI,HOP-62 NSCLC,6840 nM
same,GI50,MALME-3M melanoma,599 nM
same,TGI,MALME-3M melanoma,5000 nM
same,GI50,SK-MEL-2 melanoma,540 nM
same,TGI,SK-MEL-2 melanoma,5710 nM
same,GI50,M14 melanoma,476 nM
same,TGI,M14 melanoma,3500 nM
same,GI50,SNB-19 CNS,425 nM
same,TGI,SNB-19 CNS,> 44100 nM
same,GI50,OVCAR-4 ovarian,672 nM
same,TGI,OVCAR-4 ovarian,9210 nM
same,GI50,NCI-H460 lung,311 nM
same,TGI,NCI-H460 lung,1560 nM
same,GI50,SW-620 colon,403 nM
same,TGI,SW-620 colon,> 35700 nM
same,GI50,SF-295 CNS,460 nM
same,TGI,SF-295 CNS,11900 nM
same,GI50,HL-60(TB) leukemia,369 nM
same,GI50,MCF7 breast,325 nM
same,TGI,MCF7 breast,> 35300 nM
same,GI50,A498 renal,1810 nM
same,TGI,A498 renal,> 31000 nM
same,GI50,CCRF-CEM leukemia,411 nM
same,TGI,CCRF-CEM leukemia,> 63700 nM
same,GI50,HT29 colon,7400 nM
same,TGI,HT29 colon,> 100000 nM
same,GI50,PC-3 prostate,391 nM
same,TGI,PC-3 prostate,> 37800 nM
same,GI50,CAKI-1 renal,518 nM
same,TGI,CAKI-1 renal,7250 nM
same,GI50,SK-OV-3 ovarian,529 nM
same,TGI,SK-OV-3 ovarian,4890 nM
same,GI50,COLO 205 colon,4360 nM
same,TGI,COLO 205 colon,> 100000 nM
same,GI50,K-562 leukemia,339 nM
same,TGI,K-562 leukemia,> 100000 nM
